Measurements as given in PubChem BioAssay (NCI).
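96-well plates; 48 h exposure; 5 concentrations. Endpoints by linear interpolation between flanking doses. Not reached: highest tested concentration assigned. Here, GI50 denotes the concentration required for 50% inhibition of growth. At the TGI there is no net growth.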

Legend:
Assay in all cases: growth of human tumour cells (NCI), 48 h
SF-295 CNS = tested on: SF-295 CNS
CAKI-1 renal = tested on: CAKI-1 renal
A498 renal = tested on: A498 renal
MCF7 breast = tested on: MCF7 breast
M14 melanoma = tested on: M14 melanoma
CCRF-CEM leukemia = tested on: CCRF-CEM leukemia
SR leukemia = tested on: SR leukemia
HT29 colon = tested on: HT29 colon
COLO 205 colon = tested on: COLO 205 colon
SN12C renal = tested on: SN12C renal
786-0 renal = tested on: 786-0 renal
DU-145 prostate = tested on: DU-145 prostate
OVCAR-4 ovarian = tested on: OVCAR-4 ovarian
HOP-92 NSCLC = tested on: HOP-92 NSCLC
UO-31 renal = tested on: UO-31 renal
OVCAR-3 ovarian = tested on: OVCAR-3 ovarian
SK-OV-3 ovarian = tested on: SK-OV-3 ovarian
NCI-H460 lung = tested on: NCI-H460 lung
OVCAR-5 ovarian = tested on: OVCAR-5 ovarian
HCC-2998 colon = tested on: HCC-2998 colon
HOP-62 NSCLC = tested on: HOP-62 NSCLC
SK-MEL-5 melanoma = tested on: SK-MEL-5 melanoma
IGROV1 ovarian = tested on: IGROV1 ovarian
A549 NSCLC = tested on: A549 NSCLC
HCT-116 colon = tested on: HCT-116 colon
SNB-75 CNS = tested on: SNB-75 CNS
NCI-H23 lung = tested on: NCI-H23 lung
SF-268 CNS = tested on: SF-268 CNS
NCI/ADR-RES ovarian = tested on: NCI/ADR-RES ovarian
MALME-3M melanoma = tested on: MALME-3M melanoma
PC-3 prostate = tested on: PC-3 prostate
SW-620 colon = tested on: SW-620 colon
UACC-257 melanoma = tested on: UACC-257 melanoma
U251 CNS = tested on: U251 CNS
SK-MEL-2 melanoma = tested on: SK-MEL-2 melanoma
MOLT-4 leukemia = tested on: MOLT-4 leukemia
HCT-15 colon = tested on: HCT-15 colon
SF-539 CNS = tested on: SF-539 CNS
TK-10 renal = tested on: TK-10 renal
NCI-H226 lung = tested on: NCI-H226 lung
NCI-H522 lung = tested on: NCI-H522 lung
RXF 393 renal = tested on: RXF 393 renal
SK-MEL-28 melanoma = tested on: SK-MEL-28 melanoma
MDA-MB-435 = tested on: MDA-MB-435
OVCAR-8 ovarian = tested on: OVCAR-8 ovarian
ACHN renal = tested on: ACHN renal
T-47D breast = tested on: T-47D breast
LOX IMVI melanoma = tested on: LOX IMVI melanoma
EKVX NSCLC = tested on: EKVX NSCLC
HS 578T breast = tested on: HS 578T breast
MDA-MB-231 breast = tested on: MDA-MB-231 breast
UACC-62 melanoma = tested on: UACC-62 melanoma
K-562 leukemia = tested on: K-562 leukemia
BT-549 breast = tested on: BT-549 breast
HL-60(TB) leukemia = tested on: HL-60(TB) leukemia
SNB-19 CNS = tested on: SNB-19 CNS
KM12 colon = tested on: KM12 colon
RPMI-8226 leukemia = tested on: RPMI-8226 leukemia

## Clc1ccccc1CNc1c2ccccc2nc2ccccc12
SF-295 CNS
  GI50: 1.59 µM
  TGI: 7.31 µM
CAKI-1 renal
  GI50: 2.11 µM
  TGI: 8.08 µM
A498 renal
  GI50: 1.75 µM
  TGI: 6.94 µM
MCF7 breast
  GI50: 1.27 µM
  TGI: 5.63 µM
M14 melanoma
  GI50: 2.04 µM
  TGI: 9.98 µM
CCRF-CEM leukemia
  GI50: 2.74 µM
  TGI: 50 µM
SR leukemia
  GI50: 1.89 µM
  TGI: 6.99 µM
HT29 colon
  GI50: 1.67 µM
  TGI: 9.02 µM
COLO 205 colon
  GI50: 1.6 µM
  TGI: 6.16 µM
SN12C renal
  GI50: 1.93 µM
  TGI: 8.27 µM
786-0 renal
  GI50: 2.72 µM
  TGI: 11 µM
DU-145 prostate
  GI50: 2.45 µM
  TGI: 8.58 µM
OVCAR-4 ovarian
  GI50: 2.13 µM
  TGI: 8.11 µM
HOP-92 NSCLC
  GI50: 1.91 µM
  TGI: 8.45 µM
UO-31 renal
  GI50: 1.35 µM
  TGI: 6.96 µM
OVCAR-3 ovarian
  GI50: 3.39 µM
  TGI: 10.5 µM
SK-OV-3 ovarian
  GI50: 5.41 µM
  TGI: 12.6 µM
NCI-H460 lung
  GI50: 1.7 µM
  TGI: 6.19 µM
OVCAR-5 ovarian
  GI50: 2.16 µM
  TGI: 9.09 µM
HCC-2998 colon
  GI50: 1.5 µM
  TGI: 5.57 µM
HOP-62 NSCLC
  GI50: 3.62 µM
  TGI: 12.8 µM
SK-MEL-5 melanoma
  GI50: 3.09 µM
  TGI: 9.34 µM
IGROV1 ovarian
  GI50: 1.88 µM
  TGI: 8.83 µM
A549 NSCLC
  GI50: 2.21 µM
  TGI: 10.7 µM
HCT-116 colon
  GI50: 1.65 µM
  TGI: 8.1 µM
SNB-75 CNS
  GI50: 2.55 µM
  TGI: 9.63 µM
NCI-H23 lung
  GI50: 1.67 µM
  TGI: 8.9 µM
SF-268 CNS
  GI50: 2.95 µM
  TGI: 11.4 µM
NCI/ADR-RES ovarian
  GI50: 2.04 µM
  TGI: 9.52 µM
MALME-3M melanoma
  GI50: 2.71 µM
  TGI: 9.1 µM
PC-3 prostate
  GI50: 2.24 µM
  TGI: 11.9 µM
SW-620 colon
  GI50: 1.67 µM
  TGI: 6.56 µM
UACC-257 melanoma
  GI50: 2.99 µM
  TGI: 11.5 µM
U251 CNS
  GI50: 2.36 µM
  TGI: 9.7 µM
SK-MEL-2 melanoma
  GI50: 3.26 µM
  TGI: 12.5 µM
MOLT-4 leukemia
  GI50: 1.84 µM
  TGI: 16.3 µM
HCT-15 colon
  GI50: 1.69 µM
  TGI: 6.85 µM
SF-539 CNS
  GI50: 1.84 µM
  TGI: 6.71 µM
TK-10 renal
  GI50: 3.98 µM
  TGI: 11 µM
NCI-H226 lung
  GI50: 2.22 µM
  TGI: 10.1 µM
NCI-H522 lung
  GI50: 5.05 µM
  TGI: 21.3 µM
RXF 393 renal
  GI50: 1.29 µM
  TGI: 4.44 µM
SK-MEL-28 melanoma
  GI50: 2.75 µM
  TGI: 9.21 µM
MDA-MB-435
  GI50: 1.96 µM
  TGI: 8.14 µM
OVCAR-8 ovarian
  GI50: 2.41 µM
  TGI: 13.3 µM
ACHN renal
  GI50: 1.76 µM
  TGI: 6.89 µM
T-47D breast
  GI50: 2.3 µM
  TGI: 13 µM
LOX IMVI melanoma
  GI50: 1.57 µM
  TGI: 5.93 µM
EKVX NSCLC
  GI50: 2.77 µM
  TGI: 9.85 µM
HS 578T breast
  GI50: 5.97 µM
  TGI: 18.1 µM
MDA-MB-231 breast
  GI50: 2.39 µM
  TGI: 10.2 µM
UACC-62 melanoma
  GI50: 2.3 µM
  TGI: 9.18 µM
K-562 leukemia
  GI50: 1.48 µM
  TGI: 41.7 µM
BT-549 breast
  GI50: 4.17 µM
  TGI: 12 µM
HL-60(TB) leukemia
  GI50: 2.05 µM
  TGI: 9.71 µM
SNB-19 CNS
  GI50: 2.28 µM
  TGI: 8.96 µM
KM12 colon
  GI50: 2.03 µM
  TGI: 8.28 µM

## CC([C@H]1CCC2C3CCC4C[C@@H](N)CC[C@]4(C)C3CC[C@@]21C)N(C)C (stereo partly drawn)
SF-295 CNS
  GI50: 6.46 µM
  TGI: 22.5 µM
CAKI-1 renal
  GI50: 5.67 µM
  TGI: 18.1 µM
A498 renal
  GI50: 9.69 µM
  TGI: 25.9 µM
MCF7 breast
  GI50: 4.17 µM
  TGI: 18.1 µM
M14 melanoma
  GI50: 1.79 µM
  TGI: 3.54 µM
CCRF-CEM leukemia
  GI50: 6.69 µM
  TGI: 23.3 µM
HT29 colon
  GI50: 1.29 µM
  TGI: 5.59 µM
COLO 205 colon
  GI50: 1.89 µM
  TGI: 4.37 µM
SN12C renal
  GI50: 8.17 µM
  TGI: 25.7 µM
786-0 renal
  GI50: 4.99 µM
  TGI: 11.6 µM
DU-145 prostate
  GI50: 14.3 µM
  TGI: > 48.4 µM
OVCAR-4 ovarian
  GI50: 9.12 µM
  TGI: 38.9 µM
RPMI-8226 leukemia
  GI50: 3.04 µM
  TGI: 11.7 µM
HOP-92 NSCLC
  GI50: 4.53 µM
  TGI: 25.9 µM
UO-31 renal
  GI50: 2.34 µM
  TGI: 7.74 µM
OVCAR-3 ovarian
  GI50: 6.96 µM
  TGI: 21.2 µM
SK-OV-3 ovarian
  GI50: 13.4 µM
  TGI: 30.4 µM
NCI-H460 lung
  GI50: 2.4 µM
  TGI: 6.04 µM
OVCAR-5 ovarian
  GI50: 17.5 µM
  TGI: 41.4 µM
HCC-2998 colon
  GI50: 12.8 µM
  TGI: 26.3 µM
HOP-62 NSCLC
  GI50: 6.1 µM
  TGI: 12 µM
SK-MEL-5 melanoma
  GI50: 1.95 µM
  TGI: 5.23 µM
IGROV1 ovarian
  GI50: 8.88 µM
  TGI: 35 µM
A549 NSCLC
  GI50: 8.45 µM
  TGI: 24.7 µM
HCT-116 colon
  GI50: 1.9 µM
  TGI: 5.02 µM
SNB-75 CNS
  GI50: 8.15 µM
  TGI: 24.9 µM
NCI-H23 lung
  GI50: 13.8 µM
  TGI: 37.2 µM
SF-268 CNS
  GI50: 3.34 µM
  TGI: 11.7 µM
NCI/ADR-RES ovarian
  GI50: 15.1 µM
  TGI: 48.7 µM
MALME-3M melanoma
  GI50: 1.88 µM
  TGI: 5.11 µM
PC-3 prostate
  GI50: 8.52 µM
  TGI: 33 µM
SW-620 colon
  GI50: 2.74 µM
  TGI: 7.73 µM
UACC-257 melanoma
  GI50: 2.4 µM
  TGI: 5.42 µM
U251 CNS
  GI50: 3.61 µM
  TGI: 15.6 µM
SK-MEL-2 melanoma
  GI50: 8.45 µM
  TGI: 21.3 µM
MOLT-4 leukemia
  GI50: 5.02 µM
  TGI: 17.2 µM
HCT-15 colon
  GI50: 1.59 µM
  TGI: 4.72 µM
SF-539 CNS
  GI50: 2.01 µM
  TGI: 4.98 µM
TK-10 renal
  GI50: 12 µM
  TGI: 28.3 µM
NCI-H226 lung
  GI50: 12.4 µM
  TGI: > 45.9 µM
NCI-H522 lung
  GI50: 7.25 µM
  TGI: 21.3 µM
RXF 393 renal
  GI50: 4.55 µM
  TGI: 14.9 µM
SK-MEL-28 melanoma
  GI50: 1.91 µM
  TGI: 3.66 µM
MDA-MB-435
  GI50: 2.26 µM
  TGI: 5.27 µM
OVCAR-8 ovarian
  GI50: 15.7 µM
  TGI: > 53.6 µM
ACHN renal
  GI50: 8.99 µM
  TGI: 21.6 µM
T-47D breast
  GI50: 3.23 µM
  TGI: 17.9 µM
LOX IMVI melanoma
  GI50: 1.61 µM
  TGI: 3.44 µM
EKVX NSCLC
  GI50: 13.8 µM
  TGI: 54.8 µM
HS 578T breast
  GI50: 3.35 µM
  TGI: 16.1 µM
MDA-MB-231 breast
  GI50: 5.72 µM
  TGI: 16.5 µM
UACC-62 melanoma
  GI50: 2.36 µM
  TGI: 5.67 µM
K-562 leukemia
  GI50: 2.27 µM
  TGI: 7.34 µM
BT-549 breast
  GI50: 5.9 µM
  TGI: 28.1 µM
HL-60(TB) leukemia
  GI50: 5.55 µM
  TGI: 13.2 µM
SNB-19 CNS
  GI50: 15.8 µM
  TGI: 32.7 µM
KM12 colon
  GI50: 7.55 µM
  TGI: 21.4 µM
